Laboratory results from publication PMC12082738 (Journal of Enzyme Inhibition and Medicinal Chemistry, 2025).

Assays:
E. coli β-GUS = E. coli β-GUS (Escherichia coli, UniProt P05804); assay: β-GUS inhibition assay; type: biochemical; settings: for Inhibition type, β-GUS: Lineweaver–Burk and Dixon plots, substrate 4-MUG
S. cerevisiae α-GUS = S. cerevisiae α-GUS (Saccharomyces cerevisiae, UniProt P07265); assay: α-GUS inhibition assay; type: biochemical
α-amylase = settings: read-out: IC50 α-amylase; cited from earlier work
[1] = target: protein tyrosine phosphatase-1B; settings: read-out: IC50 protein tyrosine phosphatase-1B; cited from earlier work
L6 myotubes = settings: cited from earlier work
[2] = tested on: human umbilical vein endothelial cells; settings: cited from earlier work
[3] = tested on: platelet-activating factor acetyltransferase; settings: read-out: IC50 platelet-activating factor acetyltransferase; cited from earlier work
colorectal cancer cells = settings: 7.1 μM; cited from earlier work
α-GUS = settings: read-out: IC50 against α-GUS; cited from earlier work
β-GUS = settings: read-out: IC50 against β-GUS; cited from earlier work
[4] = substrate kinetics, preliminary kinetic assay

S. cerevisiae α-GUS, sequence (P07265 whole entry): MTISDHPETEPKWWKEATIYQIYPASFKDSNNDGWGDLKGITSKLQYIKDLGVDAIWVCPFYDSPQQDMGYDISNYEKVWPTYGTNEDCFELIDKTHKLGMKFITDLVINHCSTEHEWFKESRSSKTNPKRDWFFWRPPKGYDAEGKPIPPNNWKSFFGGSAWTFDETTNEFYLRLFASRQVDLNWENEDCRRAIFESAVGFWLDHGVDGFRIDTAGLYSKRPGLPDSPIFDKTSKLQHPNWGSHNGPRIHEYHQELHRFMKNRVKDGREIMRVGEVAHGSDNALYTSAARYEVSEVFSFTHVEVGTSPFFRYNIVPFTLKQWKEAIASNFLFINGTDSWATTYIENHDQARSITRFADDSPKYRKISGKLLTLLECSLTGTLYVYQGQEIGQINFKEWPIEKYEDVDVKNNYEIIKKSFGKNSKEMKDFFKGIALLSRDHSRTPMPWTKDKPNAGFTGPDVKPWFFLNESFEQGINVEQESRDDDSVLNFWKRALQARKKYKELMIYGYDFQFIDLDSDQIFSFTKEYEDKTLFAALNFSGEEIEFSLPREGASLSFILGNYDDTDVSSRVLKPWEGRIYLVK
E. coli β-GUS, sequence (P05804 whole entry): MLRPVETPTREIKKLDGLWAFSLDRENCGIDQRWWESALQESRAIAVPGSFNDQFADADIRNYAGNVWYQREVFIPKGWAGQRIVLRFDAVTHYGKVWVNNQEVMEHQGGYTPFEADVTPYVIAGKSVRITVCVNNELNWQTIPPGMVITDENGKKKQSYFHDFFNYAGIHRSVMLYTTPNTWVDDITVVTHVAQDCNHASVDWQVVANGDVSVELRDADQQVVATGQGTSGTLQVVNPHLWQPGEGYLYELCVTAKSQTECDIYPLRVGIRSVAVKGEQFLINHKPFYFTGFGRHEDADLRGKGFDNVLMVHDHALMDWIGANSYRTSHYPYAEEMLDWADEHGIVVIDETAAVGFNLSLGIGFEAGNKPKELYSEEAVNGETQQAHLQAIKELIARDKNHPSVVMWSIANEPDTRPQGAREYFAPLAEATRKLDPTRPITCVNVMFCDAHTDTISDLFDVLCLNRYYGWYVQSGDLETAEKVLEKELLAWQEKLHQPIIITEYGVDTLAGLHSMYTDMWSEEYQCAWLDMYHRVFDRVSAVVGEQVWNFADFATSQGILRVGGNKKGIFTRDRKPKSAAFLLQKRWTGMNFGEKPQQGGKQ

Question: With Cc1cc(=O)oc2cc(O[C@@H]3O[C@H](C(=O)O)[C@@H](O)[C@H](O)[C@H]3O)ccc12 [4-MUG, 4-Methylumbelliferyl-β-D-glucuronide, reference compound] as the molecule, how does the “Vmax for 4-MUG hydrolysis by β-GUS” value (E. coli β-GUS; [4]) read?
Answer: 7.21 ± 0.10 µmol/min/mg

Question: Which Ki (S. cerevisiae α-GUS) does the source give for CC(C)=CCc1c(O)c(CC=C(C)C)c2occ(-c3ccc(O)cc3)c(=O)c2c1O [DPG, 6,8-diprenylgenistein] here?
Answer: 11.4 ± 2.2 µM

Question: What about the IC50 (S. cerevisiae α-GUS; IC50 for inhibition of α-GUS, substrate PNPG 500 μM) of the same molecule?
Answer: 60.6 ± 10.3 µM

Question: And the “Inhibition type, α-GUS” value (S. cerevisiae α-GUS; Lineweaver–Burk and Dixon plots, substrate PNPG)?
Answer: Un-competitive

Question: What about the IC50 (E. coli β-GUS) of the same molecule?
Answer: 4.05 ± 0.16 µM

Question: And the Ki (E. coli β-GUS)?
Answer: 2.62 ± 0.1 µM

Question: What about the “Inhibition type, β-GUS” value (E. coli β-GUS) of the same molecule?
Answer: Non-competitive

Question: What about the “Inhibition type, β-GUS” value (E. coli β-GUS; listed as Diprenylgenistein) of the same molecule?
Answer: competitive

Question: What about the IC50 (α-amylase) of the same molecule?
Answer: 14.8 µM

Question: And the IC50 [1]?
Answer: 2.3 to 28 µM

Question: And the “concentration increasing basal and insulin-stimulated glucose uptake” value (L6 myotubes)?
Answer: > 10 µM

Question: And the “concentration reversing high glucose induced injury” value [2]?
Answer: > 2.5 µM

Question: What about the IC50 [3] of the same molecule?
Answer: 19 µM

Question: And the “effect on colorectal cancer cells” value (colorectal cancer cells)?
Answer: trigger dual apoptosis and autophagy

Question: For O=C(O)[C@@H](O)[C@H]1OC(=O)[C@H](O)[C@H]1O [DSL, D-Saccharic acid 1,4-lactone, reference compound], which IC50 (E. coli β-GUS) is on record?
Answer: 55 ± 7.6 µM

Question: With O=[N+]([O-])c1ccc(O[C@H]2O[C@H](CO)[C@@H](O)[C@H](O)[C@H]2O)cc1 [PNPG, 4-Nitrophenyl-α-D-glucopyranoside, reference compound] as the molecule, how does the “Vmax for PNPG hydrolysis by α-GUS” value (S. cerevisiae α-GUS; [4]) read?
Answer: 1.05 ± 0.03 μmol/min/U

Question: For O=c1c(-c2ccc(O)cc2)coc2cc(O)ccc12 [daidzein], which IC50 (α-GUS) is on record?
Answer: > 100 µM

Question: What about the IC50 (β-GUS) of the same molecule?
Answer: > 100 µM
